{
  "source": "patent US20050101621A1",
  "about": "“Method for rapid detoxification of addiction” (priority 2003, published 2005)",
  "assay": "general anesthesia assisted opiate detoxification with high-rate opiod antagonist infusion",
  "assay_type": "in vivo, patient",
  "description": "Treatment begins by providing the patient with Valium, Xanax and Trazedone, which are taken orally. The patient's vitals are then monitored using such equipment as an electrocardiogram, pulse oxymeter, blood pressure monitor, ETCO2 monitor, oxygen sensor, and tidol volume monitor. An intravenous (IV) line is then set-up and general anesthesia is induced, preferably using Valium, Propofol and Mivacron. These anesthetizing agents are suited to facilitate endotracheal (ET) intubation.\nOnce the anesthesia takes effect, an endotracheal tube is appropriately placed through the patient's oral cavity and the patient retrieves to spontaneous respirations over the next few minutes. A Precedex infusion is then started, preferably at […], to achieve cardiovascular stability. Next antiemetics and antiperistaltic agents are then administered. In accordance with the preferred method the antiemetics and antiperistaltic agents comprise dexamethazone somatostatin and robinul; other similar agents can be employed. An antihistamine agent, e.g., Benedryl, is then given.\nNext, a Naloxone (or its generic counterpart Narcane) infusion is started at rate of 0.6 mg/kg/hr for one hour, i.e., 0.6 mg/hr per unit of the patient's metric weight. In accordance with the present invention, Naloxone is administered at rate greater than 1.5 mg/hr. […]",
  "data": [
    {"compound": "C=CCN1CC[C@]23c4c5ccc(O)c4O[C@H]2C(=O)CC[C@@]3(O)[C@H]1C5", "note": "[Naloxone]", "values": [
      {"measurement": "medical risk to the patient of high-rate Naloxone administration", "setting": "infusion 0.6 mg/kg/hr for one hour (30 mg/hr for 50 kg, approximately 50 mg/hr for 75 kg), patient anesthetized", "result": "does not expose a patient to a severe medical risk"},
      {"measurement": "risk to the patient of Naloxone administration", "setting": "rate of 1.4 mg/kg/hr", "result": "without exposing the patient to unnecessary risks"}
    ]}
  ]
}
